According to patent US7154028B2, “Gibberellin 2-oxidase gene, functions and uses thereof” (National Agriculture and Bio-Oriented Research Organization, priority 2002, dated 2006):

Columns and labels:
OsGA2ox1 [1] = details: cited from earlier work
OsGA2ox3 [2] = biological target: T1, OsGA2ox3 (Oryza sativa subsp. japonica, UniProt Q8S0S6); test: Enzyme assay with recombinant OsGA2ox3 (E. coli lysate), products identified by GC-MS; format: biochemical; details: labeled substrate incubated with recombinant OsGA2ox3, full scan GC-MS
T1 construct: general method only; made in house; host or cells: E. coli
T1 sequence (Q8S0S6 whole entry): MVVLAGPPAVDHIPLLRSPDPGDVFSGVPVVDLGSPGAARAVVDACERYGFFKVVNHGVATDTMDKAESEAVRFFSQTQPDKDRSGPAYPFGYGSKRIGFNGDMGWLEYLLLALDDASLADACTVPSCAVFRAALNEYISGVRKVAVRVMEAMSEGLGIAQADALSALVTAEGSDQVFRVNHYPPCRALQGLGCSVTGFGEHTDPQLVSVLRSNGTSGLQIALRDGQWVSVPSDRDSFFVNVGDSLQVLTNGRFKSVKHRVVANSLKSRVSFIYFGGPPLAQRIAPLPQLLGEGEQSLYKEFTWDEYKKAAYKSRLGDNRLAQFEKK
From the text: A cell lysate obtained from E. coli heterologously expressing OsGA2ox3 cDNA was used for enzyme assay as previously described (Sakamoto, T. et al., Plant Physiol., 125(3): 1508–16, (2001)). […] However, GA20 was metabolized to a GA29-catabolite. Furthermore, the metabolism of GA29 to a GA29-catabolite was confirmed by metabolism experiments.

OsGA2ox1 [3] = details: GA3-treatment; cited from earlier work
OsGA20ox1 = test: RNA gel blot of GA20-oxidase gene transcription in treated rice seedlings; format: in vivo, Oryza sativa; details: wild-type rice seedlings, 10 μM, three days, relative to the effect on OsGA2ox3
Experimental: (§1) Seeds of wild-type rice (Oryza sativa L., i.e. Nipponbare) were sterilized in 1% NaClO for one hour, and seeded on agar medium. Seedlings were grown in a growth chamber under continuous light at 30° C. To investigate the influence of GA3 and uniconazole on GA-oxidase expression, wild-type rice seedlings were transferred to a hydroponic culture system containing 10 μM GA3 or 10 μM uniconazole, and allowed to grow for three days. Ten-micrograms of RNAs were prepared from each sample, and gel blot analysis was performed as previously described (Sakamoto, T. et al., Plant Physiol., 125(3): 1508–16, 2001). The influence of uniconazole, a suppressor of GA3 and GA biosyntheses, on the transcriptional level of OsGA2ox2 and OsGA2ox3 (FIG. 6A) was examined. Transcription level of OsGA2ox3 was increased by GA3 treatment, but decreased by uniconazole (FIG. 6A) treatment. […] Transcription of the […] gene was not detected even after GA3 treatment.

AtGA2ox1 = details: GA-deficient mutants, after treatment with GA3; cited from earlier work
AtGA2ox2 = details: GA-deficient mutants, after treatment with GA3; cited from earlier work
OsGA2ox3 [4] = test: RNA gel blot of OsGA2ox3 transcription in treated rice seedlings; format: in vivo, Oryza sativa; details: for transcription level of the OsGA2ox3 gene: FIG. 6B; for Transcription level of OsGA2ox3: wild-type rice seedlings, 10 μM, three days, FIG. 6A
Experimental: as §1

wild type rice = test: Overexpression of OsGA2ox3 cDNA in transgenic rice; format: in vivo, Oryza sativa
Experimental: As previously described (Sakamoto, T. et al., Plant Physiol., 125(3): 1508–16, 2001), the full-length OsGA2ox3 cDNA was inserted between the rice actin promoter and the polyadenylation signal of nopaline synthase (NOS) present in a hygromycin resistant binary vector pAct-Hm2. This construct was introduced into Agrobacterium tumefaciens EHA101. Agrobacterium-mediated transformation was conducted as described in the literature (WO 01/06844 A1). Transgenic plants were selected on a medium containing 50 mg/L hygromycin.
To test the activity of the OsGA2ox3 gene product in vivo, the full-length OsGA2ox3 cDNA was fused to the rice actin promoter and introduced into wild type rice by Agrobacterium-mediated gene transfer. […] Leaf blades of these plants were dark green, and they were shorter and wider than those of the wild type plants. All of these phenotypes are typical for GA-deficient dwarf rice plants.

Molecule: C=C1C[C@]23C[C@@]1(O)CC[C@H]2[C@@]12CCC[C@@](C)(C(=O)O1)[C@H]2[C@@H]3C(=O)O [GA20, gibberellin A20]
- product of metabolism by OsGA2ox1 gene product (OsGA2ox1 [1]): GA29
- Product (OsGA2ox3 [2]): GA29-catabolite
- Product (OsGA2ox3 [2]; listed as [^2H2]GA20): [^2H2]GA29-catabolite

Molecule: C=C1C[C@]23C[C@@]1(O)CC[C@H]2[C@@]12C=C[C@H](O)[C@@](C)(C(=O)O1)[C@H]2[C@@H]3C(=O)O [GA3]
- transcription level of OsGA2ox1 (OsGA2ox1 [3]): not affected
- transcriptional level of the OsGA20ox1 gene (OsGA20ox1): completely reversed
- transcription levels of AtGA2ox1 (AtGA2ox1): increased
- transcription levels of AtGA2ox2 (AtGA2ox2): increased
- Transcription of the OsGA2ox3 gene (OsGA2ox3 [4]; after GA3 treatment, detection): not detected
- transcription level of the OsGA2ox3 gene (OsGA2ox3 [4]; one hour after GA3 treatment): increased
- transcription level of the OsGA2ox3 gene (OsGA2ox3 [4]; six hours after GA3 treatment): decreased to a level that was even lower than the transcription level observed before GA3 treatment
- Transcription level of OsGA2ox3 (OsGA2ox3 [4]): increased

Molecule: CC(C)(C)C(O)/C(=C\c1ccc(Cl)cc1)n1cncn1 (centres unmarked) [uniconazole]
- transcriptional level of the OsGA20ox1 gene (OsGA20ox1): completely reversed
- Transcription level of OsGA2ox3 (OsGA2ox3 [4]): decreased

Molecule: C=C1C[C@]23C[C@@]1(O)CC[C@H]2[C@@]12CC[C@H](O)[C@@](C)(C(=O)O1)[C@H]2[C@@H]3C(=O)O [GA1]
- product of metabolism by OsGA2ox1 gene product (OsGA2ox1 [1]): GA8
- Product (OsGA2ox3 [2]): GA8
- Product (OsGA2ox3 [2]; listed as [^2H2]GA1): [^2H2]GA8

Molecule: C=C1C[C@]23C[C@@]1(O)CC[C@H]2[C@@]12C[C@H](O)C[C@@](C)(C(=O)O1)[C@H]2[C@@H]3C(=O)O [GA29, gibberellin A29]
- Product (OsGA2ox3 [2]): GA29-catabolite
- Product (OsGA2ox3 [2]; listed as [^2H2]GA29): [^2H2]GA29-catabolite

B1: OsGA2ox3 cDNA: full-length rice GA2-oxidase cDNA (SEQ ID NO: 3) fused to the rice actin promoter, introduced into rice (nucleic acid, listed as Oryza sativa)
DNA: ATGGTGGTTCTCGCTGGCCCGCCCGCCGTCGATCACATCCCGCTGCTGAGGTCGCCGGACCCCGGCGACGTCTTCTCCGGCGTGCCGGTCGTCGACCTCGGCAGCCCCGGCGCGGCGAGGGCCGTGGTGGACGCCTGCGAGCGGTACGGGTTCTTCAAGGTCGTCAACCACGGCGTGGCCACGGACACGATGGACAAGGCCGAGTCGGAGGCCGTCAGGTTCTTCTCCCAGACGCAGCCCGACAAGGACCGCTCCGGCCCGGCCTACCCGTTCGGGTACGGCAGCAAGCGGATCGGGTTCAATGGCGACATGGGGTGGCTCGAGTACCTCCTCCTCGCCCTCGACGACGCGTCGCTCGCCGACGCCTGCACCGTCCCGTCCTGCGCGGTCTTCCGGGCCGCTCTGAACGAGTACATCTCGGGGGTGCGGAAGGTGGCGGTGCGGGTGATGGAGGCGATGTCGGAGGGGCTGGGCATTGCGCAGGCGGACGCGCTGAGCGCGCTGGTGACGGCGGAAGGGAGCGACCAGGTGTTCCGCGTGAACCACTACCCGCCGTGCCGCGCGCTGCAGGGGCTCGGCTGCAGCGTCACCGGCTTCGGCGAGCACACCGACCCGCAGCTCGTCTCCGTGCTCCGCTCAAACGGCACGTCCGGCCTGCAGATCGCGCTCCGCGACGGCCAGTGGGTGTCCGTGCCCTCCGACCGCGACTCCTTCTTCGTCAACGTCGGCGACTCGTTGCAGGTTCTGACCAATGGGAGGTTCAAGAGCGTGAAGCACAGGGTGGTGGCCAACAGCCTAAAGTCTAGGGTTTCCTTCATCTACTTTGGAGGGCCACCGTTAGCACAGAGGATTGCACCATTGCCACAGCTGCTGGGGGAGGGAGAGCAGAGCCTGTACAAGGAGTTCACATGGGATGAGTACAAGAAGGCTGCCTACAAATCAAGGCTTGGAGACAACAGGCTGGCCCAGTTTGAGAAGAAGTAG
modifications: rice actin promoter fused, not cited; CDS (1)..(984)
- phenotype of transgenic plants (wild type rice; rice actin promoter, 27 independent lines, FIG. 5): extreme dwarf phenotypes
- flowering of transgenic plants (wild type rice; wild type flowered about three months after seeding): did not flower even after four months
